Where “and” joins values, the source holds several entries; their conditions need not be identical. Equal values may be shown once.
Assay: Phase 1 single-ascending dose (Part 1): safety and tolerability in healthy adults
Assay type: in vivo, human
Experimental: This ongoing trial is a Phase 1 randomized, double-blind, placebo-controlled study in male and female healthy adult volunteers aged 18-55 years. All volunteers provided written, informed consent.
All volunteers were followed up for 4 weeks and safety and tolerability were continuously assessed throughout the study. All adverse events (AEs) were recorded from the time of consent to the completion visit and were graded using the DAIDS toxicity grading scale. Volunteers also underwent physical examinations, electrocardiograms, vital sign checks and clinical laboratory parameters (chemistry, haematology, urinalysis).

CCCCOc1nc(N)c2[nH]cc(Cc3ccc(CN4CCCC4)cc3)c2n1 [Compound 4]
lab toxicity: Cholesterol (mmol/L), upwards, Grade 2 (single dose 0.6 mg fasted): 0 n (%)
lab toxicity: Creatine kinase (U/L), upwards, Grade 1 (single dose 0.6 mg fasted): 0 n (%)
lab toxicity: Creatine kinase (U/L), upwards, Grade 2 (single dose 0.6 mg fasted): 1 (16.7%) n (%)
lab toxicity: Creatine kinase (U/L), upwards, Grade 4 (single dose 0.6 mg fasted): 0 n (%)
lab toxicity: Glucose (mmol/L), upwards, Grade 1 (single dose 0.6 mg fasted): 1 (16.7%) n (%)
lab toxicity: Glucose (mmol/L), upwards, Grade 2 (single dose 0.6 mg fasted): 1 (16.7%) n (%)
lab toxicity: LDL cholesterol (mmol/L, calculated), upwards, Grade 1 (single dose 0.6 mg fasted): 2 (33.3%) n (%)
lab toxicity: LDL cholesterol (mmol/L, calculated), upwards, Grade 2 (single dose 0.6 mg fasted): 1 (16.7%) n (%)
lab toxicity: LDL cholesterol (mmol/L, calculated), upwards, Grade 3 (single dose 0.6 mg fasted): 0 n (%)
lab toxicity: Lymphocytes (giga/L), downwards, Grade 2 (single dose 0.6 mg fasted): 0 n (%)
lab toxicity: Lymphocytes (giga/L), downwards, Grade 4 (single dose 0.6 mg fasted): 0 n (%)
lab toxicity: Neutrophils, segmented (giga/L), downwards, Grade 1 (single dose 0.6 mg fasted): 0 n (%)
lab toxicity: Neutrophils, segmented (giga/L), downwards, Grade 2 (single dose 0.6 mg fasted): 0 n (%)
lab toxicity: Platelets (giga/L), downwards, Grade 1 (single dose 0.6 mg fasted): 0 n (%)
lab toxicity: Sodium (mmol/L), upwards, Grade 1 (single dose 0.6 mg fasted): 2 (33.3%) n (%)
lab toxicity: Sodium (mmol/L), upwards, Grade 2 (single dose 0.6 mg fasted): 1 (16.7%) n (%)
lab toxicity: Triglycerides (mmol/L), upwards, Grade 1 (single dose 0.6 mg fasted): 4 (66.7%) n (%)
lab toxicity: Triglycerides (mmol/L), upwards, Grade 2 (single dose 0.6 mg fasted): 0 n (%)
lab toxicity: Triglycerides (mmol/L), upwards, Grade 3 (single dose 0.6 mg fasted): 0 n (%)
lab toxicity: Urate (μmol/L), upwards, Grade 1 (single dose 0.6 mg fasted): 0 n (%)
subjects with at least one AE (single dose 0.6 mg fasted): 3 (50.0%) n (%)
subjects with at least one AE for which any study drug or study was permanently stopped (single dose 0.6 mg fasted): 0 n (%)
subjects with at least one AE for which any study drug or study was temporarily stopped (single dose 0.6 mg fasted): 0 n (%)
subjects with at least one AE possibly related to any study drug (single dose 0.6 mg fasted): 1 (16.7%) n (%)
subjects with at least one AE possibly, probably or very likely related to any study drug (single dose 0.6 mg fasted): 1 (16.7%) n (%)
subjects with at least one AE probably related to any study drug (single dose 0.6 mg fasted): 0 n (%)
subjects with at least one AE very likely related to any study drug (single dose 0.6 mg fasted): 0 n (%)
subjects with at least one SAE (single dose 0.6 mg fasted): 0 n (%)
subjects with at least one fatal AE (single dose 0.6 mg fasted): 0 n (%)
subjects with at least one grade 1 AE (single dose 0.6 mg fasted): 3 (50.0%) n (%)
subjects with at least one grade 2 AE (single dose 0.6 mg fasted): 0 n (%)
subjects with at least one grade 3 or 4 AE (single dose 0.6 mg fasted): 0 n (%)
treatment-related AE: Any AE (single dose 0.6 mg fasted): 1 (16.7%) n (%)
treatment-related AE: Chills (single dose 0.6 mg fasted): 0 n (%)
treatment-related AE: Dizziness (single dose 0.6 mg fasted): 0 n (%)
treatment-related AE: General disorders and administration site conditions (single dose 0.6 mg fasted): 0 n (%)
treatment-related AE: Headache (single dose 0.6 mg fasted): 0 n (%)
treatment-related AE: Hypertension (single dose 0.6 mg fasted): 0 n (%)
treatment-related AE: Myalgia (single dose 0.6 mg fasted): 0 n (%)
treatment-related AE: Nervous system disorders (single dose 0.6 mg fasted): 0 n (%)
treatment-related AE: Oropharyngeal pain (single dose 0.6 mg fasted): 0 n (%)
treatment-related AE: Pyrexia (single dose 0.6 mg fasted): 0 n (%)
treatment-related AE: Respiratory, thoracic and mediastinal disorders (single dose 0.6 mg fasted): 1 (16.7%) n (%)
treatment-related AE: Vascular disorder (single dose 0.6 mg fasted): 0 n (%)
vital signs: Respiratory rate (brpm) Grade 1 (single dose 0.6 mg fasted): 3 (50.0%) n (%)
vital signs: Respiratory rate (brpm) Grade 2 (single dose 0.6 mg fasted): 0 n (%)
vital signs: SaO2 (%) 90% to <95% (single dose 0.6 mg fasted): 0 n (%)
vital signs: SaO2 (%) 95% to <98% (single dose 0.6 mg fasted): 4 (66.7%) n (%)
vital signs: Standing DBP (mmHg) Grade 1 (single dose 0.6 mg fasted): 0 n (%)
vital signs: Standing DBP (mmHg) Grade 2 (single dose 0.6 mg fasted): 0 n (%)
vital signs: Standing DBP (mmHg) Grade 3 (single dose 0.6 mg fasted): 0 n (%)
vital signs: Standing DBP (mmHg) Low (single dose 0.6 mg fasted): 0 n (%)
vital signs: Standing SBP (mmHg) Grade 1 (single dose 0.6 mg fasted): 1 (16.7%) n (%)
vital signs: Standing SBP (mmHg) Low (single dose 0.6 mg fasted): 0 n (%)
vital signs: Standing pulse (bpm) High (single dose 0.6 mg fasted): 0 n (%)
vital signs: Standing pulse (bpm) Low (single dose 0.6 mg fasted): 0 n (%)
vital signs: Supine DBP (mmHg) Grade 1 (single dose 0.6 mg fasted): 0 n (%)
vital signs: Supine DBP (mmHg) Low (single dose 0.6 mg fasted): 1 (16.7%) n (%)
vital signs: Supine SBP (mmHg) Grade 1 (single dose 0.6 mg fasted): 1 (16.7%) n (%)
vital signs: Supine SBP (mmHg) Grade 2 (single dose 0.6 mg fasted): 0 n (%)
vital signs: Supine SBP (mmHg) Low (single dose 0.6 mg fasted): 0 n (%)
vital signs: Supine pulse (bpm) Low (single dose 0.6 mg fasted): 1 (16.7%) n (%)
↑ AST Grade 3 (laboratory abnormality) (single dose 0.6 mg fasted): 0 n (%)
↑ Amylase Grade 2 (laboratory abnormality) (single dose 0.6 mg fasted): 0 n (%)
↑ Cholesterol Grade 2 (laboratory abnormality) (single dose 0.6 mg fasted): 0 n (%)
↑ Creatine kinase Grade 2 (laboratory abnormality) (single dose 0.6 mg fasted): 1 (17) n (%)
↑ Creatine kinase Grade 4 (laboratory abnormality) (single dose 0.6 mg fasted): 0 n (%)
↑ Glucose Grade 2 (laboratory abnormality) (single dose 0.6 mg fasted): 1 (17) n (%)
↑ LDL cholesterol Grade 2 (laboratory abnormality) (single dose 0.6 mg fasted): 1 (17) n (%)
↑ LDL cholesterol Grade 3 (laboratory abnormality) (single dose 0.6 mg fasted): 0 n (%)
↑ Lipase Grade 2 (laboratory abnormality) (single dose 0.6 mg fasted): 0 n (%)
↑ Pancreatic amylase Grade 2 (laboratory abnormality) (single dose 0.6 mg fasted): 0 n (%)
↑ Potassium Grade 2 (laboratory abnormality) (single dose 0.6 mg fasted): 0 n (%)
↑ Sodium Grade 2 (laboratory abnormality) (single dose 0.6 mg fasted): 1 (17) n (%)
↑ Triglycerides Grade 2 (laboratory abnormality) (single dose 0.6 mg fasted): 0 n (%)
↑ Triglycerides Grade 3 (laboratory abnormality) (single dose 0.6 mg fasted): 0 n (%)
↓ Bicarbonate Grade 2 (laboratory abnormality) (single dose 0.6 mg fasted): 0 n (%)
↓ GFR Grade 2 (laboratory abnormality) (single dose 0.6 mg fasted): 0 n (%)
↓ Lymphocytes Grade 2 (laboratory abnormality) (single dose 0.6 mg fasted): 0 n (%)
↓ Lymphocytes Grade 4 (laboratory abnormality) (single dose 0.6 mg fasted): 0 n (%)
↓ Neutrophils Grade 2 (laboratory abnormality) (single dose 0.6 mg fasted): 0 n (%)
↓ Phosphate Grade 2 (laboratory abnormality) (single dose 0.6 mg fasted): 0 n (%)
subjects with headache (AE) (single dose 1.25 mg): 4 (50.0%) n (%)
subjects with myalgia (AE) (single dose 1.25 mg): 3 (37.5%) n (%)
subjects with pyrexia (AE) (single dose 1.25 mg): 3 (37.5%) n (%)
Any AE (treatment-emergent) (single dose 1.25 mg fasted): 8 (100) n (%)
Back pain Grade 1 (treatment-emergent AE) (single dose 1.25 mg fasted): 1 (13) n (%)
Chills Grade 1 (treatment-emergent AE) (single dose 1.25 mg fasted): 0 n (%)
Contact dermatitis Grade 1 (treatment-emergent AE) (single dose 1.25 mg fasted): 0 n (%)
Dizziness Grade 1 (treatment-emergent AE) (single dose 1.25 mg fasted): 0 n (%)
ECG actual value: Heart rate (bpm) Low (single dose 1.25 mg fasted): 0 n (%)
ECG actual value: QRS (ms) High (single dose 1.25 mg fasted): 1 (12.5%) n (%)
ECG actual value: QTcB (ms) ]450; 480] (single dose 1.25 mg fasted): 1 (12.5%) n (%)
ECG actual value: QTcF (ms) ]450; 480] (single dose 1.25 mg fasted): 1 (12.5%) n (%)
ECG change from reference: QTcB (ms) [30; 60] (single dose 1.25 mg fasted): 3 (37.5%) n (%) and 3 (37.5%)^a n (%)
ECG change from reference: QTcF (ms) [30; 60] (single dose 1.25 mg fasted): 1 (12.5%) n (%) and 1 (12.5%)^a n (%)
Headache Grade 1 (treatment-emergent AE) (single dose 1.25 mg fasted): 4 (50) n (%)
Headache Grade 2 (treatment-emergent AE) (single dose 1.25 mg fasted): 0 n (%)
Hypertension Grade 1 (treatment-emergent AE) (single dose 1.25 mg fasted): 0 n (%)
Hypertension Grade 2 (treatment-emergent AE) (single dose 1.25 mg fasted): 0 n (%)
Myalgia Grade 1 (treatment-emergent AE) (single dose 1.25 mg fasted): 3 (38) n (%)
Oropharyngeal pain Grade 1 (treatment-emergent AE) (single dose 1.25 mg fasted): 2 (25) n (%)
Pyrexia Grade 1 (treatment-emergent AE) (single dose 1.25 mg fasted): 2 (25) n (%)
Pyrexia Grade 2 (treatment-emergent AE) (single dose 1.25 mg fasted): 1 (13) n (%)
URTI Grade 1 (treatment-emergent AE) (single dose 1.25 mg fasted): 2 (25) n (%)
lab toxicity: Amylase (U/L), upwards, Grade 1 (single dose 1.25 mg fasted): 1 (12.5%) n (%)
lab toxicity: Amylase (U/L), upwards, Grade 2 (single dose 1.25 mg fasted): 0 n (%)
lab toxicity: Cholesterol (mmol/L), upwards, Grade 1 (single dose 1.25 mg fasted): 1 (12.5%) n (%)
lab toxicity: Cholesterol (mmol/L), upwards, Grade 2 (single dose 1.25 mg fasted): 0 n (%)
lab toxicity: Creatine kinase (U/L), upwards, Grade 1 (single dose 1.25 mg fasted): 0 n (%)
lab toxicity: Creatine kinase (U/L), upwards, Grade 2 (single dose 1.25 mg fasted): 0 n (%)
lab toxicity: Creatine kinase (U/L), upwards, Grade 4 (single dose 1.25 mg fasted): 0 n (%)
lab toxicity: Glucose (mmol/L), upwards, Grade 1 (single dose 1.25 mg fasted): 3 (37.5%) n (%)
lab toxicity: Glucose (mmol/L), upwards, Grade 2 (single dose 1.25 mg fasted): 1 (12.5%) n (%)
lab toxicity: LDL cholesterol (mmol/L, calculated), upwards, Grade 1 (single dose 1.25 mg fasted): 0 n (%)
lab toxicity: LDL cholesterol (mmol/L, calculated), upwards, Grade 2 (single dose 1.25 mg fasted): 0 n (%)
lab toxicity: LDL cholesterol (mmol/L, calculated), upwards, Grade 3 (single dose 1.25 mg fasted): 1 (12.5%) n (%)
lab toxicity: Lymphocytes (giga/L), downwards, Grade 2 (single dose 1.25 mg fasted): 1 (12.5%) n (%)
lab toxicity: Lymphocytes (giga/L), downwards, Grade 4 (single dose 1.25 mg fasted): 0 n (%)
lab toxicity: Neutrophils, segmented (giga/L), downwards, Grade 1 (single dose 1.25 mg fasted): 2 (25.0%) n (%)
lab toxicity: Neutrophils, segmented (giga/L), downwards, Grade 2 (single dose 1.25 mg fasted): 0 n (%)
lab toxicity: Platelets (giga/L), downwards, Grade 1 (single dose 1.25 mg fasted): 1 (12.5%) n (%)
lab toxicity: Sodium (mmol/L), upwards, Grade 1 (single dose 1.25 mg fasted): 2 (25.0%) n (%)
lab toxicity: Sodium (mmol/L), upwards, Grade 2 (single dose 1.25 mg fasted): 1 (12.5%) n (%)
lab toxicity: Triglycerides (mmol/L), upwards, Grade 1 (single dose 1.25 mg fasted): 3 (37.5%) n (%)
lab toxicity: Triglycerides (mmol/L), upwards, Grade 2 (single dose 1.25 mg fasted): 4 (50.0%) n (%)
lab toxicity: Triglycerides (mmol/L), upwards, Grade 3 (single dose 1.25 mg fasted): 0 n (%)
lab toxicity: Urate (μmol/L), upwards, Grade 1 (single dose 1.25 mg fasted): 0 n (%)
subjects with Grade 2 treatment-related AEs (pyrexia) (single dose 1.25 mg fasted): 1 (12.5%) n (%)
subjects with at least one AE (single dose 1.25 mg fasted): 8 (100%) n (%)
subjects with at least one AE for which any study drug or study was permanently stopped (single dose 1.25 mg fasted): 1 (12.5%) n (%)
subjects with at least one AE for which any study drug or study was temporarily stopped (single dose 1.25 mg fasted): 0 n (%)
subjects with at least one AE possibly related to any study drug (single dose 1.25 mg fasted): 5 (62.5%) n (%)
subjects with at least one AE possibly, probably or very likely related to any study drug (single dose 1.25 mg fasted): 6 (75.0%) n (%)
subjects with at least one AE probably related to any study drug (single dose 1.25 mg fasted): 3 (37.5%) n (%)
subjects with at least one AE very likely related to any study drug (single dose 1.25 mg fasted): 0 n (%)
